Assay results published in article PMC5485444 (Antibiotics, 2017).
Values after ≈ are worked out from the molar mass of the structure shown. Where two headings read alike, the source gives them in different places.

Key:
[1] = Solubility in DMSO / DMSO-d6 observed during 1H NMR; assay type: physicochemical; details: DMSO / DMSO-d6, NMR sample
Protocol: ^1H NMR was used to confirm the presence of AD in the AD-EM (Figure S1). Both EM and AD-EM were dissolved in deuterated dimethyl sulfoxide (DMSO-d6) and spectra acquired. The spectra are in agreement with the reported literature spectra, thus we looked to see changes in the spectra following the conjugation reaction. The processed spectra of each species were compared to monitor structural differences between protons from EM and AD-EM. The AD-EM spectra confirms the presence of both AD and EM, as well as hydrazone formation, indicating successful reaction. In the NMR spectra of AD-EM, AD attachment is confirmed by the presence of two multiplet peaks at approximately 1.9 ppm and from 1.6–1.8 ppm, corresponding to protons from the fused cyclohexane rings of AD. In the spectra of the AD-EM, a singlet peak, corresponding to a hydrazone, appears at 9.0 ppm. […] However, peak placement is consistent between AD-EM and EM, indicating the presence of both species in the AD-EM conjugate.
EM (approximately 40 mg) and AD-EM (approximately 40 mg) were dissolved in 500 µL of DMSO-d6, and sonication was used to promote dissolution. Samples were analyzed on a 600 MHz Varian Nuclear Magnetic Resonance Spectrometer, using 128 scans and a 45 degree pulse angle. Spectra were analyzed using MesReNova software using the residual solvent peak from DMSO-d6 as the reference.

[2] = Acidic stability / acidic conversion absorbance spectral scan; assay type: physicochemical; details: for Acidic conversion over several hours (absorbance pattern, words): pH 5.0 vs neutral vs acidic later neutralized, t = several hours
Protocol: The PBS solution was diluted to a concentration of 70 μM and concentrated sulfuric acid ([…]) was added to the solution in a volume equal to that of the total volume of the initial 70 µM solution to elicit a color change detectable with absorbance spectroscopy. Two separate solutions were initially created with the acetate buffer. One solution was diluted to 70 μM and allowed to sit for several hours at room temperature. The other acetate solution was diluted to a slightly higher concentration, sat for 1 h at room temperature, was neutralized with sodium hydroxide (0.1 N) (such that the concentration of the solution was 70 µM), and sat for several more hours at room temperature. Both acetate solutions were treated with equal volumes of sulfuric acid to elicit a color change.

[3] = system: S. aureus; assay: Zone of inhibition antibacterial study with drug-loaded insoluble cyclodextrin polymer disks; assay type: cell-based, Staphylococcus aureus; details: approximately two weeks
Protocol: A zone of inhibition study against S. aureus was conducted for approximately two weeks using EM and AD-EM loaded into insoluble cyclodextrin polymer disks to evaluate whether the chemical modification altered the intrinsic antimicrobial activity of EM (Figure 4). […] It is possible that the slight decrease in antibacterial activity after 8 days in AD-EM (compared to EM) can be attributed to the presence of both species in the final AD-EM composition.
Synthesis of insoluble cyclodextrin polymer disks was carried out according to a previously published protocol by Thatiparti et al.. Briefly, 1 g cyclodextrin (CycloLab, Budapest, Hungary) was dissolved in 4 mL dimethylformamide (DMF) and stirred. The solution was cross-linked with hexamethylene diisocyanate (HDI; Sigma Aldrich, St. Louis, MO, USA) in a molar ratio of 1:0.16 (glucose residue: HDI). The solution was cured at 70 °C for 45 min and punched into 8 mm disks. Disks were washed to removed unreacted products over several days in 100% DMF, 50:50 DMF:water, and 100% water before use. […]
The antibacterial activity of EM and AD-EM loaded insoluble cyclodextrin polymer disks was evaluated against S. aureus (GFP labeled S. aureus kindly provided by Ed Greenfield, Case Western Reserve University, Cleveland, OH, USA) according to the protocol outlined by Thatiparti et al.. […]

[4] = Solubility study in aqueous buffers and organic solvents; assay type: physicochemical
Protocol: The solubility of AD-EM compared to EM was evaluated in several different aqueous buffers (i.e., PBS, Water, Acetate pH 5.0) and polar solvents (i.e., methanol, ethyl acetate, acetone). The solubility study presented in Table 1 further verifies that modified AD-EM is more hydrophobic than EM due to the addition of the hydrophobic AD group. […] The increased hydrophobicity of AD-EM is desirable to enhance its ability to bind to tissue, thereby increasing its tissue residence time and therapeutic activity.
Small samples of both EM and AD-EM (1–3 mg samples for aqueous solvents (water, PBS (pH 7.4), and acetate buffer (pH 5.0)); 10 mg samples for methanol, ethyl acetate, and acetone) were placed in individual vials. Each solvent was gradually added to either the EM or AD-EM samples in 50–100 µL increments until the drug sample was completely dissolved and the solution was homogeneous. Three trials were completed for each drug in each solvent and the results are reported as an average of these three trials. The solubility limit of each drug was determined to be the minimum amount of volume of each solvent where the drug was completely soluble.

[5] = system: S. aureus biofilms; assay: Bacterial biofilm penetration study (colonies remaining in mature biofilm); assay type: cell-based, Staphylococcus aureus; details: for % Control Colonies Remaining: 1.25 mg/mL, mature (72 h) biofilm, vs 90% PBS/10% DMSO control; for Original colonies in the biofilm eradicated: 1 h exposure; for Original colonies killed: 7 h exposure; for Additional killing compared to the 7 h time point: 24 h exposure
Protocol: The ability to penetrate through the biofilm is related to the number of bacteria remaining in the biofilm after exposure to a drug compared to the control condition (90% PBS/10% DMSO). The control condition was set-up in such a way that the biofilm coated cyclodextrin polymer was placed in a solution under the same conditions used to make the drug-containing solutions. The colonies remaining in the biofilms after 1, 7, and 24 h after being treated with AD-EM, EM, or the control solution are reported in Table 2, where the remaining colonies from drug-treated biofilms are compared to the number of colonies in a control solution. After only 1 h of exposure to the drug (AD-EM or EM), nearly 30% of the original colonies in the biofilm were eradicated, and after 7 h of drug (AD-EM or EM) exposure >85% of the original colonies were killed. […] We hypothesize that this could be due to presence of planktonic bacteria naturally resistant to antibiotic effect, as well as the development of drug-resistant bacteria that are unable to be fully eradicated even after extended periods of exposure time to the drug. […] High variability in the studies reflects both the inconsistent nature of the biofilm as well as difficulty recovering bacteria to make accurate counts.
5 mm insoluble cyclodextrin polymer disks were placed in 3 mL solutions of 2× Trypticase soy broth with 30 μL of freshly cultured GFP-labeled S. aureus. Solutions were incubated at 37 °C for 72 h to form a mature biofilm. Each condition was set-up in triplicate. Following incubation, polymer disks were removed from the bacterial culture, excess broth removed, and placed in a 1.25 mg/mL drug solution of either EM or AD-EM dissolved in PBS with 10% DMSO. As a control, biofilm coated disks were also placed in a solution of just PBS and 10% DMSO. Each solution was placed in a laboratory shaker at 37 °C for either 1, 7, or 24 h. After this time, disks were removed from the drug solution, dried off, and placed in 4 mL of sterile Trypticase soy broth and homogenized for 30 s with an Omni TH homogenizer. Then, 70 μL of each solution was spread in duplicate on Trypticase soy agar plates and incubated overnight. Bacterial colonies were then counted and averaged using ImageJ software. Bacterial eradication was calculated as the percentage of colonies remaining in drug treated samples after different time points compared to the control colonies at that time point.

[6] = system: S. aureus biofilms; assay: as above; assay type: cell-based, Staphylococcus aureus; details: 48 and 72 h exposure, data not shown
[7] = aqueous buffer, thermodynamic from solid, Acetate buffer, pH 5.0, n = 3, read-out: Relative solubility in acetate buffer
[8] = aqueous buffer, thermodynamic from solid, Phosphate Buffered Saline (PBS), pH 7.4, n = 3, read-out: Relative solubility in PBS
[9] = organic solvent or mixture, thermodynamic from solid, Acetone, n = 3, read-out: Relative solubility in acetone
[10] = organic solvent or mixture, thermodynamic from solid, Ethyl Acetate, n = 3, read-out: Relative solubility in ethyl acetate
[11] = organic solvent or mixture, thermodynamic from solid, Methanol, n = 3, read-out: Relative solubility in methanol
[12] = thermodynamic from solid, Water, n = 3, read-out: Relative solubility in water

Row | Compound | Solubility in DMSO [1] | Acidic conversion over several hours (absorbance pattern, words) [2] | Zone of inhibition activity [3] | solubility [4, 7] [µg/mL] | solubility [4, 8] [µg/mL] | solubility [4, 9] [µg/mL] | solubility [4, 10] [µg/mL] | solubility [4, 11] [µg/mL] | solubility [4, 12] [µg/mL] | % Control Colonies Remaining ([5]; 1 h drug incubation) | Original colonies in the biofilm eradicated [5] [%] | % Control Colonies Remaining ([5]; 7 h drug incubation) | Original colonies killed [5] [%] | % Control Colonies Remaining ([5]; 24 h drug incubation) | Additional killing compared to the 7 h time point [5] | other results
1 | NNC(=O)C12CC3CC(CC(C3)C1)C2 [AD, adamantane-1-carbohydrazide] | completely insoluble | – | – | – | – | – | – | – | – | – | – | – | – | – | – | –
2 | CC[C@H]1OC(=O)[C@H](C)[C@@H](OC2C[C@@](C)(OC)[C@@H](O)[C@H](C)O2)[C@H](C)[C@@H](OC2O[C@H](C)C[C@H](N(C)C)[C@H]2O)[C@](C)(O)C[C@@H](C)/C(=N\NC(=O)C23CC4CC(CC(C4)C2)C3)[C@H](C)[C@@H](O)[C@]1(C)O (stereo partly drawn) [AD-EM, adamantane-modified erythromycin] | slightly insoluble | no distinguishable differences | comparable activity | 1390 ± 40 (≈ 1.53 mM) | 340 ± 10 (≈ 0.374 mM) | 37500 (≈ 41.2 mM) | > 40000 | 7300 ± 200 (≈ 8.02 mM) | 330 ± 30 (≈ 0.363 mM) | 62.7% ± 22.1% | ~30 | 14.8% ± 13.7% | > 85 | 11.7% ± 7.9% | ~ 2% | Acidic conversion over several days (absorbance signal, words) ([2]; pH 5.0 vs neutral, t = several days): lower absorbance signal than in neutral conditions; solubility ([4]; several polar solvents, comparable to EM, read-out: Solubility in several polar solvents): ~40000 µg/mL (≈ 43.9 mM)
3 | CC[C@H]1OC(=O)[C@H](C)[C@@H](O[C@H]2C[C@@](C)(OC)[C@@H](O)[C@H](C)O2)[C@H](C)[C@@H](O[C@@H]2O[C@H](C)C[C@H](N(C)C)[C@H]2O)[C@](C)(O)C[C@@H](C)C(=O)[C@H](C)[C@@H](O)[C@]1(C)O [EM, Erythromycin] | – | noticeable acidic conversion | comparable activity | 15000 (≈ 20.4 mM) | 1600 ± 400 (≈ 2.18 mM) | > 40000 | > 40000 | > 40000 | 1500 ± 200 (≈ 2.04 mM) | 71.6% ± 40.2% | ~30 | 10.5% ± 6.8% | > 85 | 8.3% ± 6.6% | ~ 2% | Absorbance signal in acidic solution ([2]; acetate pH 5.0, several hours, after 27 N sulfuric acid, 35 μM final): 0.17; Absorbance signal, acidic solution later neutralized ([2]; acetate pH 5.0 then neutralized with NaOH, several hours): 0.22; Absorbance signal in neutral solution ([2]; neutral PBS, after 27 N sulfuric acid, 35 μM final): 0.22; Colonies remaining after extended exposure [6]: approximately the same number of colonies remained
